The results in this text go back to patent US8722849B2, “Polypeptides” (Novo Nordisk A/S, priority 2011, dated 2014).

The target in data set [1] is T1, rat amylin 3(a) receptor (rat calcitonin(a) receptor + rat RAMP3) (Rattus norvegicus, UniProt P32214+Q9JJ73).
T1 construct: expressed in transfected cells; host or cells: BHK tk'ts 13
T1 sequence (P32214 25-479 isoform P32214-2 limits assumed): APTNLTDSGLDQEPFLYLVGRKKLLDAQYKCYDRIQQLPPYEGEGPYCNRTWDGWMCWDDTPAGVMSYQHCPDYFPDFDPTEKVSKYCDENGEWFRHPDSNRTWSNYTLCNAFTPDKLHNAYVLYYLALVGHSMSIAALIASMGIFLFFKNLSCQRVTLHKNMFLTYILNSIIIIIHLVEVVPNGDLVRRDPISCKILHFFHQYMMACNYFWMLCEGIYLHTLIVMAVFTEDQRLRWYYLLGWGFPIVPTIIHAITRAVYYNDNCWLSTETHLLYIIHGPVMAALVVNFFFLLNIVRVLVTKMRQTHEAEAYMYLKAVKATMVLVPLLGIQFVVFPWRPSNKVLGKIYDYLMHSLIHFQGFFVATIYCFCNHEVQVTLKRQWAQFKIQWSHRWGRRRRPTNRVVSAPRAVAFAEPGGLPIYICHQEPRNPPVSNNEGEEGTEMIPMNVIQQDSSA
T1 sequence (Q9JJ73 23-147 partner): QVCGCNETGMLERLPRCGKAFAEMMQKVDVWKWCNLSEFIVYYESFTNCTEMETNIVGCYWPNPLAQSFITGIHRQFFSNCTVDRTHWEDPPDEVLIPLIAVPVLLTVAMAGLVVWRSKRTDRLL
Kind of data set: Assay (II)b functional cAMP FlashPlate assay, rat amylin receptor. The conditions noted are these: Table 11. Type of data set: cell-based. The method in brief:
(§1)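 BHK tk'ts 13 cells transiently transfected with rat calcitonin(a) receptor, alone or with rat RAMP3 (amylin 3(a)), were stimulated 24 hours later with sample for 30 min in buffer containing IBMX. cAMP measured by competitive radioactive FlashPlate assay, scintillation read after 3 h detection incubation.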

Data set [2] in a line: Assay (IV) determination of solubility. Format: physicochemical. The method in brief: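 Polypeptide in water (~500 nmol/ml) mixed 1:1 with 100 mM glycylglycine (pH 3.0–5.0) or bistrispropane (pH 6.0–8.0) buffers. Held 18 hours at room temperature, then centrifuged. Polypeptide remaining in solution quantified by HPLC.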
Data set [3] concerns the target T2, rat calcitonin (a) receptor (Rattus norvegicus, UniProt P32214).
T2 construct: expressed in transfected cells; host or cells: BHK tk'ts 13
T2 sequence (P32214 25-479 isoform P32214-2 limits assumed): T1 sequence (P32214 25-479 isoform P32214-2 limits assumed)
Kind of data set: Assay (II)b functional cAMP FlashPlate assay, rat calcitonin receptor. Format: cell-based. The conditions noted are these: Table 11; read-out: CTa receptor rat EC50. The method in brief:
as §1

Data set [4] deals with T3, human amylin receptor (amylin 3(a) receptor: human calcitonin receptor + RAMP-3) (Homo sapiens, UniProt O60896+P30988).
T3 construct: expressed in transfected cells; host or cells: BHK570
T3 sequence (P30988 25-474): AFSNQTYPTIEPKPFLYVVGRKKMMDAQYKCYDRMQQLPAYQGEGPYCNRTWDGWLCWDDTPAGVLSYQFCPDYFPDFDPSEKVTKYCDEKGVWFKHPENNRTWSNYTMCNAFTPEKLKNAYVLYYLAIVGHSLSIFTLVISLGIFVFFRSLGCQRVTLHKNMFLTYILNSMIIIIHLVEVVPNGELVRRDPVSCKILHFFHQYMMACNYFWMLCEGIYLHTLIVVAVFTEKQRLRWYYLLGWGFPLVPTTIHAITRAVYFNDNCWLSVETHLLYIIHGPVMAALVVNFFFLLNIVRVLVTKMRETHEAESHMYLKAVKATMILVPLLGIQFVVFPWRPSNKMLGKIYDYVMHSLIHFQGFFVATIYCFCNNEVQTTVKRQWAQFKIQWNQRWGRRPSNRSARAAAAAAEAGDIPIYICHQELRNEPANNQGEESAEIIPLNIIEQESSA
T3 sequence (O60896 24-148 partner): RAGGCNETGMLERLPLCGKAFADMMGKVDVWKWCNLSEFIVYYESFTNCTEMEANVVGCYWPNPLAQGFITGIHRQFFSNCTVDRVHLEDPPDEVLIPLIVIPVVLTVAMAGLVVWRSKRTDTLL
Kind of data set: Assay (II)a functional CRE-luciferase assay, human amylin receptor. Format: cell-based.

Data set [5] addresses T4, human calcitonin receptor (Homo sapiens, UniProt P30988).
T4 construct: expressed in transfected cells; host or cells: BHK570
T4 sequence (P30988 25-474): T3 sequence (P30988 25-474)
Kind of data set: Assay (II)a functional CRE-luciferase assay, human calcitonin receptor. Format: cell-based.

Setting [6] is: Table 2, BHK amylin 3(a)-receptor/CRE-luc cells.
The mark [7] stands for this setting: Table 7, human calcitonin (CTa) receptor.

pEC50: −log10 of the molar value. Values after ≈ are worked out from the molar mass of the structure shown. Where two headings read alike, the source gives them in different places. Starred links: 1 amine or outer side, 2 acyl side, 3 side chain; linkers in the order of their positions; H or OH if unused. Positions of bridges follow the written chain, without caps; N, C: chain ends. Non-standard residues stand in square brackets, D forms with d. Residues, ends and D or L forms follow the SMILES beside them. *: point of attachment. C20 diacid = O=C(O)CCCCCCCCCCCCCCCCCCC(=O)*; γGlu = O=C(O)[C@H](CCC(=O)[*:2])N[*:1]; AEEA = NCCOCCOCC(=O)O

In the case of `CC[C@H](C)[C@H](NC(=O)[C@@H]1CCCN1C(=O)CNC(=O)[C@H](Cc1ccccc1)NC(=O)[C@H](CO)NC(=O)[C@H](CO)NC(=O)[C@H](CO)NC(=O)[C@H](CO)NC(=O)[C@H](CCCNC(=N)N)NC(=O)[C@H](Cc1cnc[nH]1)NC(=O)[C@H](CC(C)C)NC(=O)[C@H](Cc1ccccc1)NC(=O)[C@H](CCC(=O)O)NC(=O)[C@H](C)NC(=O)[C@H](CC(C)C)NC(=O)[C@H](CCCNC(=N)N)NC(=O)[C@H](CCC(N)=O)NC(=O)[C@@H](NC(=O)[C@H](C)NC(=O)[C@@H]1CSSC[C@H](NC(=O)[C@H](Cc2cnc[nH]2)NC(=O)CC[C@H](NC(=O)CCCCCCCCCCCCCCCCCCC(=O)O)C(=O)O)C(=O)N[C@@H](CC(N)=O)C(=O)N[C@@H]([C@@H](C)O)C(=O)N[C@@H](C)C(=O)N[C@@H]([C@@H](C)O)C(=O)N1)[C@@H](C)O)C(=O)N[C@@H](CC(C)C)C(=O)N1CCC[C@H]1C(=O)N1CCC[C@H]1C(=O)N[C@H](C(=O)N[C@@H](CC(=O)O)C(=O)N[C@H](C(=O)NCC(=O)N[C@@H](CO)C(=O)N[C@@H](CC(=O)O)C(=O)N[C@H](C(=O)N[C@@H](Cc1ccc(O)cc1)C(N)=O)[C@@H](C)O)C(C)C)[C@@H](C)O` [Example 9, N-alpha-[(S)-4-Carboxy-4-(19-carboxynonadecanoylamino)butyryl]-[His1,Glu14,His17,Arg18,Ser21,Ser22,Asp31,Asp35]-pramlintide] ({C20 diacid-γGlu}-HCNTATCATQRLAEFLHRSSSSFGPILPPTDVGSDTY-NH2; disulfide 2-7), the pEC50 (as a rule, the EC50 on a negative log10 scale, so that one unit is a factor of ten) is 9.48 in data set [1], 8.76 in data set [3], 9.67 in data set [4] (setting [6]) and 9.68 in data set [5] (setting [7]). For the same molecule, the solubility – broadly, the dissolved amount per volume that the medium holds – at 18 h in data set [2] (bistrispropane buffer, pH 6, pH 6.0, read-out: Solubility pH 6.0) is over 200 µM; in data set [2] (bistrispropane buffer, pH 6.5, pH 6.5, read-out: Solubility pH 6.5), over 200 µM; in data set [2] (bistrispropane buffer, pH 7, pH 7.0, 18 hours at room temperature, Table 3, read-out: Solubility pH 7.0), over 200 µM; in data set [2] (bistrispropane buffer, pH 7, pH 7.0, Table 8, read-out: Solubility pH 7.0), over 200 µM; in data set [2] (bistrispropane buffer, pH 7, pH 7.0, Table 9, read-out: Solubility pH 7.0) it was over 200 µM; in data set [2] (bistrispropane buffer, pH 7, pH 7.0, read-out: Solubility pH 7.0) it was over 200 µM. Also, the solubility at 18 h is over 200 µM in data set [2] (bistrispropane buffer, pH 7.5, pH 7.5, Table 9, read-out: Solubility pH 7.5); over 200 µM in data set [2] (bistrispropane buffer, pH 7.5, pH 7.5, read-out: Solubility pH 7.5); over 200 µM in data set [2] (bistrispropane buffer, pH 8, pH 8.0, read-out: Solubility pH 8.0); over 200 µM in data set [2] (glycylglycine buffer, pH 3, pH 3.0, read-out: Solubility pH 3.0); 116 µM (≈ 514 µg/mL) in data set [2] (glycylglycine buffer, pH 4, pH 4.0, 18 hours at room temperature, Table 2, read-out: Solubility pH 4.0); 116 µM (≈ 514 µg/mL) in data set [2] (glycylglycine buffer, pH 4, pH 4.0, read-out: Solubility pH 4.0). Besides, in data set [2] (pH 5.0, read-out: Solubility pH 5.0), the solubility at 18 h is given as 5 µM (≈ 22.2 µg/mL).

For `CC[C@H](C)[C@H](NC(=O)[C@@H]1CCCN1C(=O)CNC(=O)[C@H](Cc1ccccc1)NC(=O)[C@H](CC(N)=O)NC(=O)[C@H](CC(N)=O)NC(=O)[C@H](CO)NC(=O)[C@H](CO)NC(=O)[C@H](CCCNC(=N)N)NC(=O)[C@H](Cc1cnc[nH]1)NC(=O)[C@H](CC(C)C)NC(=O)[C@H](Cc1ccccc1)NC(=O)[C@H](CCC(=O)O)NC(=O)[C@H](C)NC(=O)[C@H](CC(C)C)NC(=O)[C@H](CCCNC(=N)N)NC(=O)[C@H](CCC(N)=O)NC(=O)[C@@H](NC(=O)[C@H](C)NC(=O)[C@@H]1CSSC[C@H](NC(=O)[C@H](CCCCN)NC(=O)[C@@H](CCCNC(=N)N)NC(=O)[C@@H](CCCNC(=N)N)NC(=O)COCCOCCNC(=O)COCCOCCNC(=O)CC[C@H](NC(=O)CCCCCCCCCCCCCCCCCCC(=O)O)C(=O)O)C(=O)N[C@@H](CC(N)=O)C(=O)N[C@@H]([C@@H](C)O)C(=O)N[C@@H](C)C(=O)N[C@@H]([C@@H](C)O)C(=O)N1)[C@@H](C)O)C(=O)N[C@@H](CC(C)C)C(=O)N1CCC[C@H]1C(=O)N1CCC[C@H]1C(=O)N[C@H](C(=O)N[C@@H](CC(N)=O)C(=O)N[C@H](C(=O)NCC(=O)N[C@@H](CO)C(=O)N[C@@H](CC(N)=O)C(=O)N[C@H](C(=O)N[C@@H](Cc1ccc(O)cc1)C(N)=O)[C@@H](C)O)C(C)C)[C@@H](C)O` [Example 37, N-alpha-[2-(2-{2-[2-(2-{2-[(S)-4-Carboxy-4-(19-carboxyheptadecanoylamino)butyrylamino]ethoxy}ethoxy)acetylamino]ethoxy}ethoxy)acetyl]-D-Arg-D-Arg-[Glu14,His17,Arg18]-pramlintide] ({C20 diacid-γGlu-AEEA-AEEA}-[dR][dR]KCNTATCATQRLAEFLHRSSNNFGPILPPTNVGSNTY-NH2; disulfide 4-9), the negative logarithm of the EC50 (pEC50) was 9.88 in data set [1]; 8.72 in data set [3]; 10.08 in data set [4] (setting [6]); 10.08 in data set [4] (Table 3, BHK amylin 3(a)-receptor/CRE-luc cells); 10.08 in data set [4] (Table 4); 10.08 in data set [4] (Table 5). Besides, the pEC50 in data set [4] (Table 6, human amylin receptor) is 10.08; in data set [4] (Table 7, human amylin receptor), 10.08; in data set [4] (Table 8), 10.08; in data set [4] (Table 11), 10.08; in data set [5] (setting [7]), 9.19; in data set [5] (Table 11, read-out: CTa receptor human EC50) it was 9.19. In addition, the solubility in data set [2] (pH 3, pH 3.0, read-out: Solubility pH 3.0) is over 200 µM; in data set [2] (pH 4, pH 4.0, 18 hours at room temperature, Table 2, read-out: Solubility pH 4.0) it was over 200 µM; in data set [2] (pH 4, pH 4.0, read-out: Solubility pH 4.0), over 200 µM; in data set [2] (pH 5, pH 5.0, read-out: Solubility pH 5.0), over 200 µM; in data set [2] (pH 6, pH 6.0, read-out: Solubility pH 6.0) it was over 200 µM; in data set [2] (pH 7.5, pH 7.5, read-out: Solubility pH 7.5), over 200 µM. In addition, the solubility in data set [2] (pH 8, pH 8.0, read-out: Solubility pH 8.0) was over 200 µM. Besides, the solubility at 18 h in data set [2] (pH 6.5, read-out: Solubility pH 6.5) turned out to be 124 µM (≈ 630 µg/mL); in data set [2] (pH 7.0, Table 8, read-out: Solubility pH 7.0), 198 µM (≈ 1010 µg/mL); in data set [2] (pH 7.0, read-out: Solubility pH 7.0), 198 µM (≈ 1010 µg/mL). Besides, the “Solubility pH 7.0 (μM)” value in data set [2] (pH 7.0, 18 hours at room temperature, Table 3) is on record as 198 μM.
